Results on seven compounds are retold here after BindingDB's records for doi:10.1021/np980119+ (University of California, 1999).

The structures appear in SMILES notation.

The experiment is described as follows: Inhibition of phorbol ester-induced ornithine decarboxylase in human MCF7 cells after 6 hrs.

What is called IC50 is the concentration that inhibits the measured activity by half. Lower therefore signals inhibition by little substance. `COc1cc(/C=C/c2ccc3c(c2)OC(C)(C)C=C3)cc(OC)c1OC` [3,4,5-trimethoxy-6'',6''-dimethylpyran[2'',3'':3',4']stilbene] had an IC50 of 3.9 µM. With `O=c1c(-c2ccc(O)cc2)coc2cc(O)cc(O)c12` [Prunetol] the figure was 26 µM; with `COc1cc(/C=C/c2cc(OC)c3c(c2)OC(C)(C)C=C3)ccc1O` [3,5'-dimethoxy-4-hydroxy-6'',6''-dimethylpyran[2'',3'':3',4']stilbene], 7.4 µM; with `COc1cc([C@@H]2CC(=O)c3c(O)c(CC=C(C)C)c4c(c3O2)C=CC(C)(C)O4)ccc1O` [(2S)-6-(gamma,gamma-dimethylallyl)-5,4'-dihydroxy-3'-methoxy-6'',6''-dimethylpyran[2'',3'':7,8]flavanone], 1.1 µM. The compound `COc1ccc([C@@H]2CC(=O)c3cc(CC=C(C)C)c4c(c3O2)C=CC(C)(C)O4)cc1OC` [(2S)-6-(gamma,gamma-dimethylallyl)-3',4'-dimethoxy-6'',6''-dimethylpyran[2'',3'':7,8]flavanone] displayed a half-maximal inhibitory concentration (IC50) of 2.3 µM. For the compound `COc1cc(/C=C/C(=O)c2ccc3c(c2O)C=CC(C)(C)O3)ccc1O` [3-methoxy-4-hydroxylonchocarpin], the IC50 came to 3.6 µM. For `Oc1ccc(/C=C/c2cc(O)cc(O)c2)cc1` [5-[(E)-2-(4-hydroxyphenyl)ethenyl]benzene-1,3-diol], the IC50 amounted to 19 µM.
